Data: the CheMixHub viscosity set

Assay: xn = mol fraction of the nth substance listed

CCC(C)(C)OC + CCCCCO
298.15 K, 101.33 kPa
Conditions | viscosity [mPa·s]
x1 = 0.0219 | 3.286
x1 = 0.0388 | 3.133
x1 = 0.0752 | 2.891
x1 = 0.1143 | 2.511
x1 = 0.1631 | 2.192
x1 = 0.211 | 1.93
x1 = 0.2721 | 1.651
x1 = 0.3347 | 1.417
x1 = 0.3464 | 1.374
x1 = 0.385 | 1.26
x1 = 0.4353 | 1.125
x1 = 0.4908 | 1.003
x1 = 0.5534 | 0.886
x1 = 0.6141 | 0.789
x1 = 0.6759 | 0.71
x1 = 0.7266 | 0.652
x1 = 0.8027 | 0.579
x1 = 0.8732 | 0.521
x1 = 0.9484 | 0.469
x2 = 0.0064 | 0.441

C=Cc1ccccc1 + CCCCCO
viscosity [mPa·s], 101.33 kPa
Conditions | x1 = 0.1003 | x1 = 0.1994 | x1 = 0.3003 | x1 = 0.3977 | x1 = 0.4969 | x1 = 0.5963 | x1 = 0.7027 | x1 = 0.8026 | x1 = 0.9011
298.15 K | 2.791 | 2.141 | 1.602 | 1.32 | 1.112 | 0.984 | 0.859 | 0.783 | 0.737
303.15 K | 2.472 | 1.984 | 1.404 | 1.175 | 1.013 | 0.901 | 0.793 | 0.741 | 0.692
308.15 K | 2.166 | 1.638 | 1.25 | 1.046 | 0.915 | 0.82 | 0.722 | 0.68 | 0.637

BrC(Br)Br + COC(C)=O
viscosity [mPa·s], 101 kPa
Conditions | x1 = 0.0997 | x1 = 0.1981 | x1 = 0.2985 | x1 = 0.406 | x1 = 0.5052 | x1 = 0.6046 | x1 = 0.7016 | x1 = 0.7984 | x1 = 0.89
298.15 K | 0.4806 | – | 0.7148 | 0.8716 | 1.039 | 1.215 | 1.403 | 1.6 | 1.783
303.15 K | 0.4671 | 0.5871 | 0.6791 | 0.8247 | 0.9763 | 1.141 | 1.297 | 1.5 | 1.671
308.15 K | 0.4465 | 0.5511 | 0.6431 | 0.7797 | 0.9244 | 1.07 | 1.207 | 1.405 | 1.57
313.15 K | 0.4263 | 0.511 | 0.6007 | 0.7368 | 0.8701 | 1.009 | 1.141 | 1.317 | 1.471

CC(C)(C)N + CCCCOC(C)=O
303.15 K, 101 kPa
Conditions | viscosity [mPa·s]
x1 = 0.1472 | 0.6309
x1 = 0.229 | 0.6186
x1 = 0.3626 | 0.5943
x1 = 0.435 | 0.5852
x1 = 0.5578 | 0.5545
x1 = 0.6566 | 0.5313
x1 = 0.7339 | 0.5091
x1 = 0.8272 | 0.4861

C=Cc1ccccc1 + CCCO
298.15 K, 101.33 kPa
Conditions | viscosity [mPa·s]
x1 = 0.0999 | 1.594
x1 = 0.1997 | 1.326
x1 = 0.298 | 1.153
x1 = 0.3952 | 1.011
x1 = 0.4985 | 0.892
x1 = 0.6022 | 0.815
x1 = 0.6984 | 0.762
x1 = 0.7985 | 0.727
x1 = 0.9019 | 0.707

BrC(Br)Br + CCCCCC
298.15 K, 101 kPa
Conditions | viscosity [mPa·s]
x1 = 0.1058 | 0.3543
x1 = 0.2044 | 0.402
x1 = 0.2976 | 0.4904
x1 = 0.3989 | 0.5721
x1 = 0.5 | 0.6698
x1 = 0.6001 | 0.8212
x1 = 0.6743 | 0.9353
x1 = 0.8 | 1.217
x1 = 0.8948 | 1.475

BrC(Br)Br + Brc1ccccc1
viscosity [mPa·s]
Conditions | x1 = 0.1693 | x1 = 0.1837 | x1 = 0.3354 | x1 = 0.3369 | x1 = 0.5411 | x1 = 0.5417 | x1 = 0.6863 | x1 = 0.6869 | x1 = 0.8606 | x1 = 0.871
298 K, 101.3 kPa | – | 1.207 | – | 1.333 | – | 1.51 | – | 1.627 | 1.769 | –
318 K, 101.33 kPa | 0.9504 | – | 1.051 | – | 1.179 | – | 1.272 | – | – | 1.396

CC(C)(C)N + CCOC(C)=O
303.15 K, 101 kPa
Conditions | viscosity [mPa·s]
x1 = 0.168 | 0.4142
x1 = 0.2336 | 0.4185
x1 = 0.3514 | 0.424
x1 = 0.5046 | 0.4329
x1 = 0.5951 | 0.4363
x1 = 0.6618 | 0.4371
x1 = 0.8008 | 0.442
x1 = 0.8723 | 0.4431

C=Cc1ccccc1 + CCCCCCC
viscosity [mPa·s], 101.33 kPa
Conditions | x1 = 0.1018 | x1 = 0.202 | x1 = 0.2988 | x1 = 0.3984 | x1 = 0.4989 | x1 = 0.5997 | x1 = 0.6992 | x1 = 0.8006 | x1 = 0.8979
298.15 K | 0.398 | 0.412 | 0.427 | 0.448 | 0.471 | 0.5 | 0.536 | 0.581 | 0.638
303.15 K | 0.379 | 0.393 | 0.406 | 0.425 | 0.445 | 0.473 | 0.508 | 0.55 | 0.599
308.15 K | 0.36 | 0.372 | 0.386 | 0.405 | 0.423 | 0.45 | 0.481 | 0.519 | 0.565

CCC(C)(C)OC + CCCO
298.15 K, 101.33 kPa
Conditions | viscosity [mPa·s]
x1 = 0.0142 | 1.889
x1 = 0.0405 | 1.759
x1 = 0.0642 | 1.647
x1 = 0.0889 | 1.548
x1 = 0.1148 | 1.461
x1 = 0.152 | 1.33
x1 = 0.2075 | 1.18
x1 = 0.2876 | 1.002
x1 = 0.289 | 0.999
x1 = 0.3381 | 0.912
x1 = 0.3924 | 0.833
x1 = 0.4452 | 0.767
x1 = 0.489 | 0.72
x1 = 0.5363 | 0.677
x1 = 0.5867 | 0.633
x1 = 0.645 | 0.594
x1 = 0.6933 | 0.564
x1 = 0.7588 | 0.53
x1 = 0.8347 | 0.496
x1 = 0.9093 | 0.455
x1 = 0.947 | 0.454

CCCCCCCCO + CS(C)=O
101 kPa
Conditions | viscosity [mPa·s]
303.15 K, x2 = 0.1888 | 4.267
303.15 K, x2 = 0.3612 | 3.296
303.15 K, x2 = 0.519 | 2.593
303.15 K, x2 = 0.6642 | 2.26
303.15 K, x2 = 0.7982 | 1.965
303.15 K, x2 = 0.9223 | 1.757
313 K, x2 = 0.1243 | 3.69
313 K, x2 = 0.2177 | 3.282
313 K, x2 = 0.4192 | 2.668
313 K, x2 = 0.5194 | 2.442
313 K, x2 = 0.6221 | 2.22
313 K, x2 = 0.714 | 2.034
313 K, x2 = 0.8145 | 1.894
313 K, x2 = 0.902 | 1.664

C=Cc1ccccc1 + C1CCOC1
viscosity [mPa·s], 101.33 kPa
Conditions | x1 = 0.1011 | x1 = 0.199 | x1 = 0.3001 | x1 = 0.401 | x1 = 0.4963 | x1 = 0.6002 | x1 = 0.6993 | x1 = 0.8017 | x1 = 0.8979
298.15 K | 0.514 | – | 0.595 | 0.632 | 0.664 | 0.695 | 0.721 | 0.742 | 0.747
303.15 K | 0.49 | 0.528 | 0.562 | 0.599 | 0.625 | 0.658 | 0.677 | 0.695 | 0.699
308.15 K | 0.463 | 0.498 | 0.532 | 0.564 | 0.589 | 0.616 | 0.637 | 0.652 | 0.651
